According to PubChem BioAssay (NCI):
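Growth conditions: 96-well plates. Treatment: test compound, 48 hours, 5 concentrations. Analysis: linear interpolation between bracketing concentrations; unreached endpoints set to highest concentration. TGI: concentration producing complete growth inhibition.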

How the values were obtained:
Experiment in all cases: NCI-60 cell line screen, 48 h
PC-3 prostate = tested on: PC-3 prostate
UACC-257 melanoma = tested on: UACC-257 melanoma
HOP-92 NSCLC = tested on: HOP-92 NSCLC
MDA-N = tested on: MDA-N
HS 578T breast = tested on: HS 578T breast
RPMI-8226 leukemia = tested on: RPMI-8226 leukemia
A549 NSCLC = tested on: A549 NSCLC
NCI/ADR-RES ovarian = tested on: NCI/ADR-RES ovarian
SK-OV-3 ovarian = tested on: SK-OV-3 ovarian
NCI-H23 lung = tested on: NCI-H23 lung
OVCAR-4 ovarian = tested on: OVCAR-4 ovarian
SF-539 CNS = tested on: SF-539 CNS
MDA-MB-231 breast = tested on: MDA-MB-231 breast
786-0 renal = tested on: 786-0 renal
NCI-H460 lung = tested on: NCI-H460 lung
CCRF-CEM leukemia = tested on: CCRF-CEM leukemia
SF-295 CNS = tested on: SF-295 CNS
SK-MEL-5 melanoma = tested on: SK-MEL-5 melanoma
RXF 393 renal = tested on: RXF 393 renal
UACC-62 melanoma = tested on: UACC-62 melanoma
NCI-H226 lung = tested on: NCI-H226 lung
NCI-H522 lung = tested on: NCI-H522 lung
A498 renal = tested on: A498 renal
HCT-116 colon = tested on: HCT-116 colon
MDA-MB-435 = tested on: MDA-MB-435
COLO 205 colon = tested on: COLO 205 colon
SNB-75 CNS = tested on: SNB-75 CNS
TK-10 renal = tested on: TK-10 renal
SK-MEL-2 melanoma = tested on: SK-MEL-2 melanoma
U251 CNS = tested on: U251 CNS
BT-549 breast = tested on: BT-549 breast
KM12 colon = tested on: KM12 colon
SN12C renal = tested on: SN12C renal
IGROV1 ovarian = tested on: IGROV1 ovarian
OVCAR-3 ovarian = tested on: OVCAR-3 ovarian
SF-268 CNS = tested on: SF-268 CNS
CAKI-1 renal = tested on: CAKI-1 renal
T-47D breast = tested on: T-47D breast
DU-145 prostate = tested on: DU-145 prostate
OVCAR-8 ovarian = tested on: OVCAR-8 ovarian
LOX IMVI melanoma = tested on: LOX IMVI melanoma
HOP-62 NSCLC = tested on: HOP-62 NSCLC
MCF7 breast = tested on: MCF7 breast
ACHN renal = tested on: ACHN renal
MALME-3M melanoma = tested on: MALME-3M melanoma
K-562 leukemia = tested on: K-562 leukemia
OVCAR-5 ovarian = tested on: OVCAR-5 ovarian
SW-620 colon = tested on: SW-620 colon
MOLT-4 leukemia = tested on: MOLT-4 leukemia
SNB-19 CNS = tested on: SNB-19 CNS
HL-60(TB) leukemia = tested on: HL-60(TB) leukemia
HT29 colon = tested on: HT29 colon
HCT-15 colon = tested on: HCT-15 colon
EKVX NSCLC = tested on: EKVX NSCLC
SK-MEL-28 melanoma = tested on: SK-MEL-28 melanoma
M14 melanoma = tested on: M14 melanoma
SR leukemia = tested on: SR leukemia
UO-31 renal = tested on: UO-31 renal

Measured: TGI

O=C(O)CC(Nc1ccccc1)C(=O)O (stereo not drawn)
> 100 µM: all assays above
